Literature values as cited in patent US20050197398A1, “Therapeutic agent for hepatic disease” (AJINOMOTO CO., INC, priority 2002, published 2005).

Legend:
[1] = system: D-galactosamine-induced liver failure rat model
[2] = system: rat primary culture hepatocytes; conditions: D-galactosamine loading

For `C[C@H](N)C(=O)O` [alanine], the liver failure [1] is listed as “improves liver failure”, the “level of ATP” value ([1]; ATP becomes lower in liver failure) is listed as “raises the level of ATP” and the “lactic dehydrogenase extracellular overflow” value [2] is listed as “suppress an increase of lactic dehydrogenase extracellular overflow”.
